Values after ≈ are worked out from the molar mass of the structure shown.
Key:
[1] = Cytotoxicity against human HeLa cells assessed as cell viability at 30 uM after 48 hrs by MTT assay; assay type: cell-based; details: read-out: Activity
[2] = Cytotoxicity against human HuH7 cells assessed as cell viability at 30 uM after 48 hrs by MTT assay; assay type: cell-based, Huh-7; details: read-out: Activity
[3] = Cytotoxicity against human HepG2 cells assessed as cell viability at 30 uM after 48 hrs by MTT assay; assay type: cell-based; details: read-out: Activity
[4] = Cytotoxicity against MDCK2 cells assessed as cell viability at 30 uM after 48 hrs by MTT assay; assay type: cell-based, Canis lupus familiaris, MDCK-II; details: dog, read-out: Activity
HeLa = test: Cytotoxicity against human HeLa cells assessed as reduction in cell viability after 48 hrs by MTT assay; assay type: cell-based
[5] = Cytotoxicity against human HuH7 cells assessed as reduction in cell viability after 48 hrs by MTT assay; assay type: cell-based; details: Huh-7, 48 h
[6] = Cytotoxicity against MDCK2 cells assessed as reduction in cell viability after 48 hrs by MTT assay; assay type: cell-based; details: Canis lupus familiaris, MDCK-II
HepG2 = test: Cytotoxicity against human HepG2 cells assessed as reduction in cell viability after 48 hrs by MTT assay; assay type: cell-based; details: HepG2, 48 h
[7] = tested on: Mycobacterium tuberculosis; test: Antimycobacterial activity against Mycobacterium tuberculosis CNCTC My 331/88 after 14 days by micromethod; assay type: functional; details: CNCTC My 331/88, 336 h
[8] = tested on: Mycobacterium tuberculosis; test: Antimycobacterial activity against Mycobacterium tuberculosis CNCTC My 331/88 after 21 days by micromethod; assay type: functional; details: CNCTC My 331/88, 504 h
Mycobacterium avium [9] = test: Antimycobacterial activity against Mycobacterium avium CNCTC My 330/88 after 14 days by micromethod; assay type: functional; details: CNCTC My 330/88, 336 h
Mycobacterium avium [10] = test: Antimycobacterial activity against Mycobacterium avium CNCTC My 330/88 after 21 days by micromethod; assay type: functional; details: CNCTC My 330/88, 504 h
Mycobacterium kansasii [11] = test: Antimycobacterial activity against Mycobacterium kansasii CNCTC My 235/80 after 7 days by micromethod; assay type: functional; details: CNCTC My 235/80, 168 h
Mycobacterium kansasii [12] = test: Antimycobacterial activity against Mycobacterium kansasii CNCTC My 235/80 after 14 days by micromethod; assay type: functional; details: CNCTC My 235/80, 336 h
Mycobacterium kansasii [13] = test: Antimycobacterial activity against Mycobacterium kansasii CNCTC My 235/80 after 21 days by micromethod; assay type: functional; details: CNCTC My 235/80, 504 h
Mycobacterium kansasii [14] = test: Antimycobacterial activity against Mycobacterium kansasii 6509/96 after 7 days by micromethod; assay type: functional; details: 6509/96, 168 h
Mycobacterium kansasii [15] = test: Antimycobacterial activity against Mycobacterium kansasii 6509/96 after 14 days by micromethod; assay type: functional; details: 6509/96, 336 h
Mycobacterium kansasii [16] = test: Antimycobacterial activity against Mycobacterium kansasii 6509/96 after 21 days by micromethod; assay type: functional; details: 6509/96, 504 h

Structure (SMILES) | viability at 48 h, 30 µM [1] [%] | viability at 48 h, 30 µM [2] [%] | viability at 48 h, 30 µM [3] [%] | viability at 48 h, 30 µM [4] [%] | IC50 (HeLa) [µM] | IC50 [5] [µM] | IC50 [6] [µM] | IC50 (HepG2) [µM] | MIC [7] [µM] | MIC [8] [µM] | MIC (Mycobacterium avium [9]) [µM] | MIC (Mycobacterium avium [10]) [µM] | MIC (Mycobacterium kansasii [11]) [µM] | MIC (Mycobacterium kansasii [12]) [µM] | MIC (Mycobacterium kansasii [13]) [µM] | MIC (Mycobacterium kansasii [14]) [µM] | MIC (Mycobacterium kansasii [15]) [µM] | MIC (Mycobacterium kansasii [16]) [µM]
O=[N+]([O-])c1cc(COc2nnnn2-c2ccc(Cl)c(Cl)c2)cc([N+](=O)[O-])c1 | 69 | 111 | 27 | 22 | > 30 | > 30 | 22 | 25 | 4 (≈ 1.64 µg/mL) | 4 (≈ 1.64 µg/mL) | 32 (≈ 13.2 µg/mL) | 62 (≈ 25.5 µg/mL) | 4 (≈ 1.64 µg/mL) | 16 (≈ 6.58 µg/mL) | 32 (≈ 13.2 µg/mL) | 4 (≈ 1.64 µg/mL) | 16 (≈ 6.58 µg/mL) | 32 (≈ 13.2 µg/mL)
O=[N+]([O-])c1ccc(CSc2nnnn2C2CCCCC2)c([N+](=O)[O-])c1 | 61 | 97 | 47 | 28 | > 30 | > 30 | 17 | 16 | 8 (≈ 2.92 µg/mL) | 16 (≈ 5.83 µg/mL) | 16 (≈ 5.83 µg/mL) | 32 (≈ 11.7 µg/mL) | 4 (≈ 1.46 µg/mL) | 8 (≈ 2.92 µg/mL) | 16 (≈ 5.83 µg/mL) | 16 (≈ 5.83 µg/mL) | 62 (≈ 22.6 µg/mL) | 62 (≈ 22.6 µg/mL)
O=[N+]([O-])c1cc(CS(=O)(=O)c2nnnn2C2CCCCC2)cc([N+](=O)[O-])c1 | 22 | 43 | 10 | 18 | 21 | 28 | < 7.5 | 9 | 2 (≈ 0.793 µg/mL) | 4 (≈ 1.59 µg/mL) | 32 (≈ 12.7 µg/mL) | 62 (≈ 24.6 µg/mL) | 8 (≈ 3.17 µg/mL) | 16 (≈ 6.34 µg/mL) | 16 (≈ 6.34 µg/mL) | 8 (≈ 3.17 µg/mL) | 16 (≈ 6.34 µg/mL) | 16 (≈ 6.34 µg/mL)
COc1ccc(-n2nnnc2SCc2cc([N+](=O)[O-])cc([N+](=O)[O-])c2)cc1 | 39 | 86 | 90 | 123 |  | > 30 | > 30 | > 30 | 2 (≈ 0.777 µg/mL) | 4 (≈ 1.55 µg/mL) | 16 (≈ 6.21 µg/mL) | 32 (≈ 12.4 µg/mL) | 1 (≈ 0.388 µg/mL) | 4 (≈ 1.55 µg/mL) | 4 (≈ 1.55 µg/mL) | 1 (≈ 0.388 µg/mL) | 1 (≈ 0.388 µg/mL) | 2 (≈ 0.777 µg/mL)
O=[N+]([O-])c1cc(C[S+]([O-])c2nnnn2C2CCCCC2)cc([N+](=O)[O-])c1 (centres undefined) | 62 | 84 | 42 | 52 | > 30 | > 30 | > 30 | 23 | 8 (≈ 3.04 µg/mL) | 16 (≈ 6.09 µg/mL) | 125 (≈ 47.5 µg/mL) | 125 (≈ 47.5 µg/mL) | 4 (≈ 1.52 µg/mL) | 16 (≈ 6.09 µg/mL) | 62 (≈ 23.6 µg/mL) | 4 (≈ 1.52 µg/mL) | 16 (≈ 6.09 µg/mL) | 32 (≈ 12.2 µg/mL)
COc1ccc(-n2nnnc2[S+]([O-])Cc2cc([N+](=O)[O-])cc([N+](=O)[O-])c2)cc1 (centres undefined) |  |  |  |  |  |  |  |  | 62 (≈ 25.1 µg/mL) | 62 (≈ 25.1 µg/mL) | 250 (≈ 101 µg/mL) | 250 (≈ 101 µg/mL) | 62 (≈ 25.1 µg/mL) | 125 (≈ 50.5 µg/mL) | 125 (≈ 50.5 µg/mL) | 32 (≈ 12.9 µg/mL) | 125 (≈ 50.5 µg/mL) | 125 (≈ 50.5 µg/mL)
Nc1cc(N)cc(CSc2nnnn2-c2ccccc2)c1 |  |  |  |  |  |  |  |  | 250 (≈ 74.6 µg/mL) | 500 (≈ 149 µg/mL) | 1000 (≈ 298 µg/mL) | 1000 (≈ 298 µg/mL) | 250 (≈ 74.6 µg/mL) | 1000 (≈ 298 µg/mL) | 1000 (≈ 298 µg/mL) | 250 (≈ 74.6 µg/mL) | 1000 (≈ 298 µg/mL) | 1000 (≈ 298 µg/mL)
COc1ccc(-n2nnnc2OCc2cc([N+](=O)[O-])cc([N+](=O)[O-])c2)cc1 |  |  |  |  |  |  |  |  | 2 (≈ 0.745 µg/mL) | 2 (≈ 0.745 µg/mL) | 16 (≈ 5.96 µg/mL) | 32 (≈ 11.9 µg/mL) | 4 (≈ 1.49 µg/mL) | 8 (≈ 2.98 µg/mL) | 16 (≈ 5.96 µg/mL) | 4 (≈ 1.49 µg/mL) | 16 (≈ 5.96 µg/mL) | 16 (≈ 5.96 µg/mL)
COc1cc(-n2nnnc2SCc2cc([N+](=O)[O-])cc([N+](=O)[O-])c2)cc(OC)c1OC |  |  |  |  |  |  |  |  | 16 (≈ 7.17 µg/mL) | 16 (≈ 7.17 µg/mL) | 250 (≈ 112 µg/mL) | 250 (≈ 112 µg/mL) | 16 (≈ 7.17 µg/mL) | 32 (≈ 14.3 µg/mL) | 32 (≈ 14.3 µg/mL) | 16 (≈ 7.17 µg/mL) | 16 (≈ 7.17 µg/mL) | 32 (≈ 14.3 µg/mL)
Cc1ccc(-n2nnnc2SCc2cc([N+](=O)[O-])cc([N+](=O)[O-])c2)cc1C |  |  |  |  |  |  |  |  | 500 (≈ 193 µg/mL) | 500 (≈ 193 µg/mL) | 250 (≈ 96.6 µg/mL) | 250 (≈ 96.6 µg/mL) | 250 (≈ 96.6 µg/mL) | 250 (≈ 96.6 µg/mL) | 250 (≈ 96.6 µg/mL) | 250 (≈ 96.6 µg/mL) | 250 (≈ 96.6 µg/mL) | 250 (≈ 96.6 µg/mL)
